Tests used:
[1] = residual activity / half life of coelenterazine in solutions with or without antioxidant; assay type: physicochemical; conditions: 10 μM coelenterazine, 0.1M Tris-HCl pH 7.4/0.3 M Sodium ascorbate vs NaCl, Na2SO3, Thiourea solutions
Method: The following four solutions were prepared, coelenterazine was dissolved at a final concentration of 10 μM, and the residual activity of coelenterazine was examined to determine a half life. In FIG. 7, the half life is shown in the solution of (1) 0.1M Tris-HCl pH 7.4/0.3 M NaCl, (2) 0.1M Tris-HCl pH 7.4/0.3 M Sodium ascorbate, (3) 0.1M Tris-HCl pH 7.4/0.2 M Na2SO3 or (4) 0.1M Tris-HCl pH 7.4/0.2 M Thiourea. […] It is desirable to add sodium ascorbate in the dual reporter assay.

copepod luciferase = assay: ratio of luminescence to self-luminescence by copepod luciferase; assay type: biochemical; conditions: 10 μM or 100 μM coelenterazine, copepod luciferase medium with 10% FBS, with sodium ascorbate salt solution
Method: Using the medium (containing 10% FBS) of copepod luciferase secreted from the animal cells, the coelenterazine solution prepared in Example 8 was dissolved at a final concentration of 10 μM or 100 μM, and the resulting solution was mixed with the medium (containing 10% FBS) for the animal cells at 1:1 (volume ratio), and the luminescence for 10 seconds was measured as the background activity. At that time, a reaction solution was 0.1M Tris-HCl pH 7.4/0.3 M, and the effect with or without the addition of 0.3 M […] was examined. The luminescence activity was measured, the ratio of the actually measured value to the self-luminescence (signal to background) was calculated, and collectively shown in FIG. 9. […] This way, the antioxidant has almost no effect on the oxidation reaction by luciferase and could reduce only the background.

[2] = self-luminescence activity of coelenterazine in 10% FBS solution; assay type: physicochemical; conditions: 10 μM or 100 μM coelenterazine, 10% FBS medium, with sodium ascorbate salt solution
Method: The following two solutions were prepared, coelenterazine was dissolved at a final concentration of 10 μM or 100 μM, the solution was mixed with the medium for animal cells (solution containing 10% FBS), and the luminescence for 10 seconds was measured as the background. […] The luminescence activity (RLU: relative light unit) was measured, the ratio of its actually measured value to the self-luminescence was calculated and correctively shown in FIG. 8.

half life [1]: widely prolonged
ratio of the luminescence to the self-luminescence (signal to background) (copepod luciferase): at least two times or more
self-luminescence (background, RLU) [2]: reduction of the self-luminescence
Structure (SMILES): Oc1ccc(Cc2nc3c(Cc4ccccc4)nc(-c4ccc(O)cc4)cn3c2O)cc1 [coelenterazine]
